In brackets after ≈: the same amount, converted by molar mass.
Columns and labels:
[1] = system: middle cerebral artery occlusion (MCAO) model; test: Anti-stroke effect in middle cerebral artery occlusion (MCAO) model, oral administration before inducing stroke; format: in vivo, rats of SD species; settings: 2 g/kg po; for Infarcted volume (Mean ± standard deviation): negative control 0.45 ± 0.03
thoracic aorta of rats = test: Relaxing effect on thoracic aorta contracted by phenylephrine (organ bath); set-up: species or system rats of SD species; settings: Rattus norvegicus; 67 μg/mL; phenylephrine 0.5 μM; mean n = 3; read-out: Relaxation percentage
How it was run: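 Thoracic aortic rings (2 mm) from ether-anesthetized male SD rats (250-300 g) were mounted in Krebs buffer gassed with 95% O2/5% CO2 and equilibrated at 1.0 g basal tension for 90 min. After stable contraction with phenylephrine (0.5 μM), compounds were added and relaxation recorded.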

[2] = system: superoxide dismutase (SOD); test: Increase of superoxide dismutase (SOD) activity in mouse brain cells; format: cell-based; settings: 100 μg/ml
Experimental: (§1) ROS inhibitory effect of compounds was represented to the dose suppressing 50% of production of reactive oxygen compared to control. […] The activity of superoxide dismutase (SOD) was measured by using a kit acquired in Sigma.

[3] = system: mixed culture of nerve cells-glial cells; test: Protecting effect on NMDA-induced nerve cell death (LDH release); format: cell-based, ICR mouse; settings: 100 μM NMDA, LDH release after 24 hours
How it was run: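 Embryonic day-14 ICR mouse cortical neurons seeded on cortical glia, Ara-C-treated, then exposed at day 12–15 for 20 min to 100 μM NMDA with compound at 1 or 2 μg/mL. LDH released 24 h later measured colorimetrically as a cell-death index.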

mouse brain cells = test: Inhibitory effect on ROS production in brain cells (DCF-DA, NMDA-induced); format: cell-based; settings: 24 h; dose suppressing 50% of production of reactive oxygen compared to control; mouse brain cells; read-out: ROS inhibitory effect ID50
Experimental: Oxidative stress was measured to test inhibitory effects on the production of reactive oxygen species (ROS) by using DCF-DA, which is a fluorescent probe. Brain cells were obtained from brain cortex of mouse to prepare cell solution with 2×10^6 cells/ml. Each brain cell was treated with 11 μM of DCF-DA followed by reaction in 37° C., 5% CO2 incubator for an hour. After washing twice, Compound 3 was treated with a concentration of 125 μg/ml and 250 μg/ml. At the same time, 300 μM of NMDA was treated and it was incubated in 37° C., 5% CO2 incubator for 24 hours.
as §1

[4] = system: pentylentetrazole (PTZ)-induced convulsion; test: Anti-convulsant effect, pentylentetrazole (PTZ) test; format: in vivo; settings: 10 mg/kg intraperitoneally, PTZ 80 mg/kg subcutaneously; for mortality rate / Induction percentage of convulsion: (animals/total); for mortality rate: negative control 70(17/23); for Induction percentage of convulsion: negative control 100(23/23); for Initiation time of convulsion: negative control 5.0 ± 0.7; for Duration of convulsion: negative control 46.7 ± 3.3
How it was run: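 Compound was given intraperitoneally at 10 mg/kg before PTZ challenge. The read-outs were time to convulsion onset, time until convulsions fully disappeared, and mortality.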

SH-SY5Y cells = test: Inhibitory effect on ZnSO4-mediated cytotoxicity (MTT assay); format: cell-based, humans; settings: compound 50 μg/ml; 600 μM zinc sulfate, 24 hours
Experimental: SH-SY5Y cells were cultured with 3×10^4 cell concentration in 96 well plates, and the compound (50 μg/ml) was treated. After 30 minutes, 600 μM of zinc sulfate was treated to induce toxicity for 24 hours and survival rate of cells was measured by MTT assay.

[5] = treatment time 0 (right before inducing ischemic stroke)
[6] = treatment time 1 (an hour before inducing ischemic stroke)

Structure (SMILES)	Inhibitory percentage compared to negative control [1, 5]	Infarcted volume (Mean ± standard deviation) [1, 5]	Inhibitory percentage compared to negative control [1, 6]	Infarcted volume (Mean ± standard deviation) [1, 6]	inhibition at 67 µg/mL (thoracic aorta of rats)	Increase of SOD activity, compared to control [2]	Inhibitory effect of cell death by NMDA-induced excitable neurotoxicity ([3]; 1 μg/ml compound)	Inhibitory effect of cell death by NMDA-induced excitable neurotoxicity ([3]; 2 μg/ml compound)	IC50 (mouse brain cells)	mortality rate [4]	Induction percentage of convulsion [4]	Initiation time of convulsion [4]	Duration of convulsion [4]	inhibitory percentage, zinc-induced toxicity (SH-SY5Y cells)
C[N+](C)(C)CCOP(=O)(O)OP(=O)([O-])OC[C@H]1O[C@@H](n2ccc(N)nc2=O)[C@H](O)[C@@H]1O [Citicoline, reference compound]	37.8%	0.28 ± 0.04 cm^3	51.1%	0.22 ± 0.03 cm^3	–	–	–	–	–	–	–	–	–	–
NCCCNCCCCNCCCn1c(=O)[nH]c2ccccc2c1=O [Compound 1, 3-{3-[4-(3-aminopropylamino)butylamino]propyl}-1H-quinazoline-2,4-dione]	–	–	–	–	12.8%	0.7 ± 5.6	16.1%	2.4%	73 ± 14.1 µg/mL (≈ 210 µM)	67(4/6) %	83(5/6) %	16.1 ± 9.0 min	43.9 ± 9.0 min	–
O=c1[nH]c2ccccc2c(=O)n1CCCNCCCCNCCCn1c(=O)[nH]c2ccccc2c1=O [Compound 2, 3-(3-{4-[3-(2,4-dioxo-1,4-dihydro-2H-quinazolin-3-yl)propylamino]butylamino}propyl)-1H-quinazoline-2,4-dione]	–	–	–	–	10.9%	2.8 ± 4.0	11.0%	0.7%	–	67(4/6) %	100(6/6) %	12.9 ± 3.7 min	35.7 ± 7.1 min	21.7 ± 4.1%
CS(=O)(=O)N(CCCCNCCCn1c(=O)[nH]c2ccccc2c1=O)CCCn1c(=O)[nH]c2ccccc2c1=O [Compound 12, N-[3-(2,4-dioxo-1,4-dihydro-2H-quinazolin-3-yl)propyl]-N-{4-[3-(2,4-dioxo-1,4-dihydro-2H-quinazolin-3-yl)propylamino]butyl}methansulfonamide]	–	–	–	–	10.9%	2.8 ± 1.8	5.7%	2.6%	–	67(4/6) %	100(6/6) %	13.7 ± 6.2 min	39.3 ± 8.8 min	12.7 ± 4.3%
O=c1[nH]c2ccccc2c(=O)n1CCNCCCNCCn1c(=O)[nH]c2ccccc2c1=O [Compound 23, 3-(2-{3-[2-(2,4-dioxo-1,4-dihydro-2H-quinazolin-3-yl)ethylamino]propylamino}ethyl)-1H-quinazoline-2,4-dione]	–	–	–	–	20.4%	4.0 ± 10	36.0%	32.2%	55.5 ± 27.2 µg/mL (≈ 123 µM)	33(2/6) %	100(6/6) %	9.3 ± 2.5 min	28.7 ± 8.6 min	–
O=c1[nH]c2ccccc2c(=O)n1CCCNCC=CCNCCCn1c(=O)[nH]c2ccccc2c1=O [Compound 25, 3-(3-{4-[3-(2,4-dioxo-1,4-dihydro-2H-quinazolin-3-yl)propylamino]-2-butenylamino}propyl)-1H-quinazoline-2,4-dione]	–	–	–	–	20%	1.6 ± 9.3	35.2%	28.8%	104 ± 32.5 µg/mL (≈ 212 µM)	83(5/6) %	100(6/6) %	6.2 ± 1.5 min	48.3 ± 5.9 min	–

From patent US8404696B2, “Quinazoline-2,4-dione derivative, and medical compositions for the prophylaxis and treatment of cranial nerve disease containing the same” (Shin Poong Pharmaceutical Co., Ltd., priority 2008, dated 2013)
